The source of these data is patent US20210030758A1, “TREATMENT OF CANCERS HAVING DRIVING ONCOGENIC MUTATIONS” (G1 Therapeutics, Inc., priority 2018, published 2021).

Data set [1] can be described thus: long-term stability study of solid form. The data set is classed as physicochemical. Conditions: 25° C. and 60% relative humidity. On the procedure: (§1) Form B is stable under thermal stress of 60° C. for 7 days. […] In one embodiment isolated Compound IA Form B is stable for at least about 6, 7, 8, 9, 10, 11, 12, 14, 16, 18, 20, 22, or 24 months.
The nature of data set [2]: dynamic vapor sorption experiment. The data set is classed as physicochemical. Conditions: exposure to 90% relative humidity.
The nature of data set [3]: thermal stress stability of solid form. Conditions: 60° C. for 7 days. The class given is physicochemical. On the procedure: as §1
A further data set deals with NSCLC PDX models. Description: NSCLC PDX model panel, tumor growth inhibition. The data set is classed as in vivo. Conditions: for sensitivity of PDX models by genetic alteration: 100 mg/kg. How it is done:
NSCLC PDX models (n=60) were treated for up to 28 days with daily oral doses of vehicle or Compound 1 (100 mg/kg). Tumor growth inhibition (TGI) was calculated when tumors reached pre-specified tumor burden or on day 28. Genetic alterations from pre-treated samples were evaluated using FoundationOne. 58% TGI was used as the responder/non-responder cutoff for correlation analysis.

Data set [4] relates to EML4-ALK NSCLC PDX tumors (Champions PDX model CTG-0852). The data set is classed as in vivo. Conditions: single agents, oral once daily, after 60 days; Compound I 50 mg/kg, crizotinib 20 mg/kg.
For data set [5], the system named is LC2/ad non-small cell lung cancer cells expressing an oncogenic CCDC6-RET fusion. Nature of the data set: LC2/ad cell proliferation by CellTiter-Glo. The data set is classed as cell-based. How it is done: LC2/ad non-small cell lung cancer cells expressing an oncogenic CCDC6-RET fusion were dosed with increasing concentrations of Compound 1, a RET inhibitor selected from pralsetinib (BLU-667) or agerafenib (RXDX-105), or RET inhibitor+300 nM Compound 1. Cell proliferation was measured by CellTiter-Glo after six days.
(In general: In ATP-based viability assays light output follows the ATP content of the culture.)

Turning to `CC(C)N1CCN(c2ccc(Nc3ncc4cc5n(c4n3)C3(CCCCC3)CNC5=O)nc2)CC1` [Compound IA Form B], the “long-term stability, time stable” value in data set [1] is recorded as “at least 1 year”. The “solid form after dynamic vapor sorption” value in data set [2] is “remained in Form B”. Further, the “stability under thermal stress” value in data set [3] is recorded as “stable”.

`CC(C)N1CCN(c2ccc(Nc3ncc4cc5n(c4n3)C3(CCCCC3)CNC5=O)nc2)CC1` [Compound I]: in the data set on NSCLC PDX models (NSCLC PDX models, adenocarcinoma, 100 mg/kg daily oral, up to 28 days), the “median TGI for adenocarcinoma” value came to 73%. In addition, the “median TGI for squamous cell carcinoma” value in the data set with NSCLC PDX models (NSCLC PDX models, squamous cell carcinoma, 100 mg/kg daily oral, up to 28 days) is reported as 66%. The “sensitivity of PDX models by genetic alteration” value with NSCLC PDX models (models with genetic alterations such as KRAS and EGFR) is listed as “increased sensitivity”; in the data set with NSCLC PDX models (models with genetic alterations such as RB1) it was “resistance”. For the same compound, the TGI in data set [4] was found to be 87%.

On to `CO[C@]1(C(=O)N[C@@H](C)c2ccc(-n3cc(F)cn3)nc2)CC[C@H](c2nc(C)cc(Nc3cc(C)[nH]n3)n2)CC1` [pralsetinib, Pralsetinib], for which the “300 nM relative to the IC50 for cellular proliferation” value in data set [5] is more than 10 fold.

As usually defined, the TGI is how far tumour growth fell short of that in controls. Read a low TGI as little slowing of growth.
